Source: US11639371B2, “Peptidylic inhibitors of nucleolin (NCL) targeting CAG-repeat RNA toxicity and methods for reducing polyQ-mediated toxicity in polyQ diseases” (The Chinese University of Hong Kong, priority 2016, dated 2023)
Peptide text beside a SMILES is read from it.

Assays:
[1] = system: primary rat cortical neurons; experiment: Cytotoxicity test on primary rat cortical neurons; conditions: wild-type primary rat cortical neurons
[2] = system: pre-45s rRNA in EGFPCAG78 RNA expressing-HEK293 cells; experiment: pre-45s rRNA expression by real-time PCR in EGFPCAG78 RNA-expressing HEK293 cells; assay type: cell-based, Human; conditions: expanded CAG-repeat RNA-expressing HEK293 cells
Procedure: (§1) RNA was extracted from cells by Trizol reagent (Life Technologies), and 1 μg of purified RNA was then used for reverse-transcription using the ImPromII™ Reverse Transcription System (Promega). Random hexamer (Roche) was used as primers in reverse transcription. Taqman gene expression assays were performed on an ABI 7500 Real-time PCR system and data were analyzed as previously described^10. The following probes were used: pre-45s rRNA (Assay ID: AILJIZM), actin (Assay ID: Hs99999903_m1), pre-rRNA (Assay ID: AIMSG5U) and GAPDH for Drosophila (Assay ID: Dm01841186).

[3] = system: pre-rRNA in DsRedCAG100 flies; experiment: pre-rRNA expression by real-time PCR in DsRedCAG100 flies; assay type: in vivo; conditions: DsRedCAG100 Drosophila model, RNA toxicity only
Procedure: as §1
(§2) For pseudopupil assay, flies were raised at 21.5° C. on cornmeal medium supplemented with dry yeast. For climbing ability assay, lifespan analysis as well as external eye assay, flies were raised at 25° C. on cornmeal medium supplemented with dry yeast. We usually feed flies at larval stage unless otherwise indicated. For larval stage treatment, third instar larvae were fed with different concentration of TAT-P3L dissolved in 2% sucrose solution for 2 h and then continued to culture in standard fly food. For adult stage treatment, 5 or 10 day-old adult flies were starved for 8 h and then fed with different concentrations of TAT-P3L dissolved in 2% sucrose solution overnight. After treatment, flies were cultured in standard fly food.

[4] = system: EGFPCAG78-expressing HEK293 cells; experiment: LDH cytotoxicity assay, EGFPCAG78 (only RNA toxicity); assay type: cell-based, Human
Procedure: (§3) Human embryonic kidney 293 cells were seeded on a 24-well plate at a density of 0.5×10^5, and pcDNA3.1-MJDCAG27/78 or, pEGFPCAG78 or, pcDNA3.1-SCA2CAG22/72/104 or pEGFP-trHttCAG23/73/145 construct was used to transfect the cells. Lactate dehydrogenase enzyme activity in the cell culture medium was measured 72 h post-transfection and drugs treatment using the Cytotox 96 non-radioactive cytotoxicity assay (Promega).

[5] = system: MJDCAG78-expressing HEK293 cells; experiment: LDH cytotoxicity assay, MJD disease cell model; assay type: cell-based, Human; conditions: MJDCAG78-expressing HEK293, CAG-repeat RNA and polyQ protein
Procedure: as §3

[6] = system: SCA2CAG72/104-expressing HEK293 cells; experiment: LDH cytotoxicity assay, SCA2 disease cell model; assay type: cell-based, Human; conditions: SCA2CAG72/104-expressing HEK293, CAG-repeat RNA and polyQ protein
Procedure: as §3

[7] = system: trHttCAG72/145-expressing HEK293 cells; experiment: LDH cytotoxicity assay, Htt disease cell model; assay type: cell-based, Human; conditions: trHttCAG72/145-expressing HEK293, CAG-repeat RNA and polyQ protein
Procedure: as §3

DsRedCAG100 flies = experiment: Pseudopupil assay, DsRedCAG100 flies; assay type: in vivo, Drosophila
Procedure: as §2
(§4) Pseudopupil assay^18 was performed on 12 day-old adult flies except for Httexon1CAG93 which 1 day-old adult flies were used for the assay. Images were captured by SPOT Insight CCD camera controlled by the SPOT Advanced software (Diagnostic instruments Inc.). External eye assay was performed on 1 day-old adult of CTG480 flies and 2 day-old adult of CGG90 flies using an Olympus SZX-12 stereomicroscope. […] Fly climbing ability was analyzed by negative geotaxis. […] After 1 h recovery, flies were banged to the bottom, and then scored for climbing ability as the percentage of flies remaining at the bottom (<2 cm) at 25s. […]

flMJDCAG84 flies = experiment: Pseudopupil assay, flMJDCAG84 flies; assay type: in vivo, Drosophila; conditions: MJD disease model
Procedure: as §2, §4

Httexon1CAG93 flies = experiment: Pseudopupil assay, Httexon1CAG93 flies; assay type: in vivo, Drosophila; conditions: Htt disease model, 1 day-old adults
Procedure: as §2, §4

DsRedCAG250 flies [8] = experiment: Climbing ability assay, DsRedCAG250 flies; assay type: in vivo, Drosophila
Procedure: as §2, §4

DsRedCAG250 flies [9] = experiment: Lifespan analysis, DsRedCAG250 flies; assay type: in vivo, Drosophila
Procedure: as §2, §4

CTG480 flies = experiment: External eye assay, CTG480 flies (Myotonic dystrophy 1); assay type: in vivo, Drosophila
Procedure: as §2, §4

CGG90 flies = experiment: External eye assay, CGG90 flies (Fragile X syndrome); assay type: in vivo, Drosophila
Procedure: as §2, §4

SMILES | concentration with no observed cytotoxicity (viability not compromised) [1] | pre-45s rRNA transcription level [2] | pre-rRNA expression level [3] | suppression of EGFPCAG78 RNA-induced cell death ([4]; LDH enzyme activity, 72 h post-transfection and treatment) | IC50 ([4]; concentration that reduced LDH enzyme activity by 50% vs untreated control, EGFPCAG78 HEK293, read-out: IC50 in inhibiting expanded CAG-repeat RNA-induced cell death) [µM] | suppression of cell death [5] | suppression of cell death [6] | suppression of cell death [7] | suppression of neurodegeneration compared with TAT-P3 (DsRedCAG100 flies; 50 uM concentration) | inhibition of neurodegeneration (retinal degeneration, pseudopupil assay) (DsRedCAG100 flies; larval feeding, 12 day-old adults) | suppression of retinal degeneration (pseudopupil assay) (flMJDCAG84 flies) | suppression of retinal degeneration (pseudopupil assay) (Httexon1CAG93 flies) | climbing ability (DsRedCAG250 flies [8]; larval treatment, 5, 10 and 15 day-old adult DsRedCAG250 flies) | climbing ability (DsRedCAG250 flies [8]; late adult stage treatment, DsRedCAG250 flies already showing degeneration) | lifespan (DsRedCAG250 flies [9]) | effect on degenerative phenotype (specificity) (CTG480 flies) | effect on degenerative phenotype (specificity) (CGG90 flies)
CC[C@H](C)[C@H](NC(=O)CNC(=O)[C@H](CCCCN)NC(=O)[C@H](CO)NC(=O)[C@H](CCCCN)NC(=O)CNC(=O)[C@H](CC(=O)O)NC(=O)[C@H](CCCCN)NC(=O)[C@H](CO)NC(=O)[C@@H](NC(=O)[C@H](CC(C)C)NC(=O)[C@H](CCCNC(=N)N)NC(=O)[C@@H](NC(=O)[C@H](CCC(=O)O)NC(=O)[C@H](C)N)[C@@H](C)CC)C(C)C)C(=O)N[C@@H](C)C(=O)N[C@@H](Cc1ccc(O)cc1)C(=O)N[C@H](C(=O)N[C@@H](CCC(=O)O)C(=O)N[C@@H](Cc1ccccc1)C(=O)N[C@@H](CCCCN)C(=O)O)[C@@H](C)CC [P3L] (H-AEIRLVSKDGKSKGIAYIEFK-OH) | up to 25 μM | – | – | – | – | – | – | – | – | – | – | – | – | – | – | – | –
CC[C@H](C)[C@H](NC(=O)CNC(=O)[C@H](CCCCN)NC(=O)[C@H](CO)NC(=O)[C@H](CCCCN)NC(=O)CNC(=O)[C@H](CC(=O)O)NC(=O)[C@H](CCCCN)NC(=O)[C@H](CO)NC(=O)[C@@H](NC(=O)[C@H](CC(C)C)NC(=O)[C@H](CCCNC(=N)N)NC(=O)[C@@H](NC(=O)[C@H](CCC(=O)O)NC(=O)[C@H](C)NC(=O)[C@H](CCCNC(=N)N)NC(=O)[C@H](CCCNC(=N)N)NC(=O)[C@H](CCCNC(=N)N)NC(=O)[C@H](CCC(N)=O)NC(=O)[C@H](CCCNC(=N)N)NC(=O)[C@H](CCCNC(=N)N)NC(=O)[C@H](CCCCN)NC(=O)[C@H](CCCCN)NC(=O)[C@H](CCCNC(=N)N)NC(=O)CNC(=O)[C@@H](N)Cc1ccc(O)cc1)[C@@H](C)CC)C(C)C)C(=O)N[C@@H](C)C(=O)N[C@@H](Cc1ccc(O)cc1)C(=O)N[C@H](C(=O)N[C@@H](CCC(=O)O)C(=O)N[C@@H](Cc1ccccc1)C(=O)N[C@@H](CCCCN)C(=O)O)[C@@H](C)CC [TAT-P3L] (H-YGRKKRRQRRRAEIRLVSKDGKSKGIAYIEFK-OH) | up to 25 μM | restore the pre-45s rRNA transcription level | restore pre-rRNA expression level | significantly suppressed | 0.7 | concentration-dependent suppression in cell death | concentration-dependent suppression in cell death | concentration-dependent suppression in cell death | suppressed neurodegeneration more effectively than TAT-P3 | concentration-dependent inhibition of neurodegeneration | suppressed retinal degeneration | suppressed retinal degeneration | ameliorated the climbing ability | dose-dependent improvement of the climbing ability | extended the lifespan | did not mitigate the phenotypes | did not mitigate the phenotypes
